In ChEMBL document CHEMBL1201862, “PubChem BioAssay data set” (2004):
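Method: 48-hour compound exposure of cells in 96-well plates, five concentrations, linear interpolation of endpoints. GI50 is the concentration that inhibits growth by half.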 The source made the active and inactive calls. Cut-off read from the data, not from the text of the source: active = GI50 up to about 1.1 µM and inactive = higher. Where a SMILES comes first, the peptide text is derived from it. The star is where a group is joined. Boc = CC(C)(C)OC(=O)*; OBn = c1ccc(CO*)cc1

What was measured:
Experiment in all cases: NCI tumour cell line growth inhibition, 48 h
SN12C = test system: SN12C
KM12 = test system: KM12
SK-MEL-2 = test system: SK-MEL-2
NCI-H23 = test system: NCI-H23
SK-MEL-5 = test system: SK-MEL-5
K562 = test system: K562
SK-OV-3 = test system: SK-OV-3
HL-60 = test system: HL-60
CCRF-CEM = test system: CCRF-CEM
T47D = test system: T47D
U-251 = test system: U-251
SW-620 = test system: SW-620
SF-295 = test system: SF-295
IGROV-1 = test system: IGROV-1
MCF7 = test system: MCF7
RXF 393 = test system: RXF 393
MDA-MB-231 = test system: MDA-MB-231
UACC-62 = test system: UACC-62
TK-10 = test system: TK-10
SK-MEL-28 = test system: SK-MEL-28

For CC(NC(=O)C(Cc1ccccc1)NC(=O)C(Cc1ccccc1)NC(=O)OC(C)(C)C)C(=O)OCc1ccccc1 (stereo not drawn) (Boc-Phe-Phe-Ala-OBn; configuration not given here), the GI50 (SN12C) was > 100 µM (inactive), the GI50 (KM12) was > 100 µM (inactive) and the GI50 (SK-MEL-2) was > 100 µM (inactive). For the same compound, the GI50 (NCI-H23) was > 100 µM (inactive), the GI50 (SK-MEL-5) was 94.2 µM (inactive) and the GI50 (K562) was 64.3 µM (inactive). For the same compound, the GI50 (SK-OV-3) was > 100 µM (inactive), the GI50 (HL-60) was 31.8 µM (inactive) and the GI50 (CCRF-CEM) was 58.3 µM (inactive). The GI50 (T47D) was > 100 µM (inactive), the GI50 (U-251) was 63.7 µM (inactive) and the GI50 (SW-620) was > 100 µM (inactive). The GI50 (SF-295) was 43.5 µM (inactive), the GI50 (IGROV-1) was > 100 µM (inactive) and the GI50 (MCF7) was 53.5 µM (inactive). For the same compound, the GI50 (RXF 393) was 30.7 µM (inactive), the GI50 (MDA-MB-231) was > 100 µM (inactive) and the GI50 (UACC-62) was 49.4 µM (inactive). The GI50 (TK-10) was 76.2 µM (inactive).
For CC(=N\N=C\c1ccccn1)/C(C)=N/N=C(C)/C(C)=N/N=C(C)/C(C)=N/N=C/c1ccccn1, the GI50 (SN12C) was > 100 µM (inactive), the GI50 (KM12) was > 100 µM (inactive) and the GI50 (SK-MEL-2) was > 100 µM (inactive). For the same compound, the GI50 (SK-MEL-28) was > 100 µM (inactive), the GI50 (NCI-H23) was > 100 µM (inactive) and the GI50 (SK-MEL-5) was > 100 µM (inactive). For the same compound, the GI50 (K562) was > 100 µM (inactive), the GI50 (SK-OV-3) was > 100 µM (inactive) and the GI50 (HL-60) was > 100 µM (inactive). For the same compound, the GI50 (CCRF-CEM) was 3.7 µM (inactive), the GI50 (T47D) was > 100 µM (inactive) and the GI50 (U-251) was > 100 µM (inactive). For the same compound, the GI50 (SW-620) was > 100 µM (inactive), the GI50 (SF-295) was > 100 µM (inactive) and the GI50 (IGROV-1) was > 100 µM (inactive). For the same compound, the GI50 (MCF7) was > 100 µM (inactive), the GI50 (RXF 393) was > 100 µM (inactive) and the GI50 (MDA-MB-231) was > 100 µM (inactive). The GI50 (TK-10) was > 100 µM (inactive).
For CC(=N\N=C\c1ccccn1)/C(C)=N/N=C(C)/C(C)=N/N=C/c1ccccn1, the GI50 (SN12C) was > 100 µM (inactive), the GI50 (KM12) was > 100 µM (inactive) and the GI50 (SK-MEL-2) was > 100 µM (inactive). The GI50 (SK-MEL-28) was > 100 µM (inactive), the GI50 (NCI-H23) was > 100 µM (inactive) and the GI50 (SK-MEL-5) was > 100 µM (inactive). The GI50 (SK-OV-3) was > 100 µM (inactive), the GI50 (HL-60) was > 100 µM (inactive) and the GI50 (CCRF-CEM) was > 100 µM (inactive). The GI50 (T47D) was > 100 µM (inactive), the GI50 (U-251) was > 100 µM (inactive) and the GI50 (SW-620) was > 100 µM (inactive). The GI50 (SF-295) was > 100 µM (inactive), the GI50 (IGROV-1) was > 100 µM (inactive) and the GI50 (MCF7) was > 100 µM (inactive). For the same compound, the GI50 (RXF 393) was > 100 µM (inactive), the GI50 (MDA-MB-231) was > 100 µM (inactive) and the GI50 (TK-10) was > 100 µM (inactive).
For N/N=C(\N)Nc1cccc2ccccc12, the GI50 (SN12C) was > 100 µM (inactive), the GI50 (KM12) was > 100 µM (inactive) and the GI50 (SK-MEL-28) was > 100 µM (inactive). The GI50 (NCI-H23) was > 100 µM (inactive), the GI50 (SK-MEL-5) was > 100 µM (inactive) and the GI50 (K562) was > 100 µM (inactive). For the same compound, the GI50 (SK-OV-3) was > 100 µM (inactive), the GI50 (HL-60) was > 100 µM (inactive) and the GI50 (CCRF-CEM) was > 100 µM (inactive). The GI50 (T47D) was > 100 µM (inactive), the GI50 (U-251) was > 100 µM (inactive) and the GI50 (SW-620) was > 100 µM (inactive). The GI50 (SF-295) was > 100 µM (inactive), the GI50 (IGROV-1) was > 100 µM (inactive) and the GI50 (MCF7) was > 100 µM (inactive). The GI50 (RXF 393) was > 100 µM (inactive), the GI50 (MDA-MB-231) was > 100 µM (inactive) and the GI50 (UACC-62) was > 100 µM (inactive). The GI50 (TK-10) was > 100 µM (inactive).
In the case of Cc1c(C)c(S(=O)(=O)N(CCCCCON)OCCCN)c(C)c2c1OC(C)(C)CC2, the GI50 (SN12C) is reported as 15.4 µM (inactive), the GI50 (KM12) is reported as 13.9 µM (inactive) and the GI50 (SK-MEL-2) is reported as 15.4 µM (inactive). For the same compound, the GI50 (SK-MEL-28) was 16.5 µM (inactive), the GI50 (NCI-H23) was 15.6 µM (inactive) and the GI50 (SK-MEL-5) was 15.9 µM (inactive). For the same compound, the GI50 (K562) was 3.94 µM (inactive), the GI50 (SK-OV-3) was 14.5 µM (inactive) and the GI50 (HL-60) was 5.74 µM (inactive). For the same compound, the GI50 (T47D) was 5 µM (inactive), the GI50 (U-251) was 12.8 µM (inactive) and the GI50 (SW-620) was 15 µM (inactive). The GI50 (SF-295) was 15.2 µM (inactive), the GI50 (IGROV-1) was 10 µM (inactive) and the GI50 (MCF7) was 8.18 µM (inactive). The GI50 (RXF 393) was 12.3 µM (inactive), the GI50 (MDA-MB-231) was 15.7 µM (inactive) and the GI50 (UACC-62) was 14.3 µM (inactive). The GI50 (TK-10) was 14.3 µM (inactive).
For CC(=O)O[C@H]1CC[C@@]2(C)C(=CC[C@@H]3[C@@H]2CC[C@]2(C)c4nc(Cl)ccc4C[C@@H]32)C1, the GI50 (SN12C) was 41.7 µM (inactive), the GI50 (KM12) was 43.3 µM (inactive) and the GI50 (SK-MEL-28) was 45.6 µM (inactive). For the same compound, the GI50 (NCI-H23) was 0.867 µM (active), the GI50 (SK-MEL-5) was 30.8 µM (inactive) and the GI50 (K562) was 31.1 µM (inactive). For the same compound, the GI50 (SK-OV-3) was > 100 µM (inactive), the GI50 (HL-60) was 33.8 µM (inactive) and the GI50 (CCRF-CEM) was 20.6 µM (inactive). For the same compound, the GI50 (T47D) was 44.6 µM (inactive), the GI50 (U-251) was 97.1 µM (inactive) and the GI50 (SW-620) was 59 µM (inactive). For the same compound, the GI50 (SF-295) was 24.7 µM (inactive), the GI50 (IGROV-1) was 89.9 µM (inactive) and the GI50 (MCF7) was 0.944 µM (active). For the same compound, the GI50 (RXF 393) was 33.3 µM (inactive), the GI50 (MDA-MB-231) was > 100 µM (inactive) and the GI50 (UACC-62) was 18.2 µM (inactive). The GI50 (TK-10) was 54.3 µM (inactive).
For CCOC(=O)c1cc(Br)c(-c2onc(C)c2Br)[nH]1, the GI50 (SN12C) was 80.7 µM (inactive), the GI50 (KM12) was > 100 µM (inactive) and the GI50 (SK-MEL-2) was 80.7 µM (inactive). For the same compound, the GI50 (SK-MEL-28) was > 100 µM (inactive), the GI50 (NCI-H23) was 49.3 µM (inactive) and the GI50 (SK-MEL-5) was 42.1 µM (inactive). For the same compound, the GI50 (K562) was > 100 µM (inactive), the GI50 (SK-OV-3) was 25.9 µM (inactive) and the GI50 (HL-60) was > 100 µM (inactive). For the same compound, the GI50 (CCRF-CEM) was > 100 µM (inactive), the GI50 (T47D) was > 100 µM (inactive) and the GI50 (U-251) was 19.1 µM (inactive). For the same compound, the GI50 (SW-620) was > 100 µM (inactive), the GI50 (SF-295) was 43.1 µM (inactive) and the GI50 (IGROV-1) was 40.2 µM (inactive). For the same compound, the GI50 (MCF7) was > 100 µM (inactive), the GI50 (RXF 393) was 16.7 µM (inactive) and the GI50 (MDA-MB-231) was 17.1 µM (inactive). For the same compound, the GI50 (UACC-62) was 36.9 µM (inactive).
